From patent publication US20250360143A1, “COMPOSITIONS AND METHODS FOR PHA[…] OF STROKE AND […] REPERFUSION INJURY” (priority 2022, published 2025) come the findings set out here.

Structures can show the parent of a compound that is named as a salt. Where two headings read alike, the source gives them in different places.

Common to all, as to assay: cell-based
In one assay the target is T1, hP2X1R (Homo sapiens, UniProt P51575).
T1 construct: expressed in transfected cells; host or cells: CHO-K1
T1 sequence (P51575 1-399): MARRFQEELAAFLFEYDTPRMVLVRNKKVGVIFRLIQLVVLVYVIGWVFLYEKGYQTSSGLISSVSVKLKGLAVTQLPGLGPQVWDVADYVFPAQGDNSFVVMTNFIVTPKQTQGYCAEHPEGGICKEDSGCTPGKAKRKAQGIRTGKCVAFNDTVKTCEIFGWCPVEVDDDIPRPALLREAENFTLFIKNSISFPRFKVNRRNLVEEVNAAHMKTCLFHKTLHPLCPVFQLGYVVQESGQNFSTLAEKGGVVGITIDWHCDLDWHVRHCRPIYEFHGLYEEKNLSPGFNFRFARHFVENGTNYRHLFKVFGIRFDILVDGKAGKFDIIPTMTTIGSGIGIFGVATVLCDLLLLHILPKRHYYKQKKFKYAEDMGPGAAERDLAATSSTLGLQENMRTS
Particulars: for inhibition at 30 µM: CHO-K1, percent inhibition at 30 μM, agonist α,β-MeATP 1.0 μM, read-out: hP2X1R % inhib.

A further assay deals with T2, hP2X2/3R (Homo sapiens, UniProt P56373+Q9UBL9).
T2 construct: expressed in transfected cells; host or cells: CHO-K1
T2 sequence (Q9UBL9 1-471): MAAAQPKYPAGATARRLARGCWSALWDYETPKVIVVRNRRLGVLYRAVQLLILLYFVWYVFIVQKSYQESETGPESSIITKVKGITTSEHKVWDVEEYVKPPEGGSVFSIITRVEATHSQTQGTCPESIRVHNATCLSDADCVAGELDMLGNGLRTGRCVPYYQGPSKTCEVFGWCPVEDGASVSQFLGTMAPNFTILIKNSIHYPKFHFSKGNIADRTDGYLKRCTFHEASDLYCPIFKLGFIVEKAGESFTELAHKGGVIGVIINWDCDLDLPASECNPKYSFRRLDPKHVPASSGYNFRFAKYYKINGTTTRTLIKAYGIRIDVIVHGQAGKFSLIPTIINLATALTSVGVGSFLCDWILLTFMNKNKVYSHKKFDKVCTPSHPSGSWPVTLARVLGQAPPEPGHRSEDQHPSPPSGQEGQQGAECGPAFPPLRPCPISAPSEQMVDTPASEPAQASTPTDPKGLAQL
T2 sequence (P56373 1-397): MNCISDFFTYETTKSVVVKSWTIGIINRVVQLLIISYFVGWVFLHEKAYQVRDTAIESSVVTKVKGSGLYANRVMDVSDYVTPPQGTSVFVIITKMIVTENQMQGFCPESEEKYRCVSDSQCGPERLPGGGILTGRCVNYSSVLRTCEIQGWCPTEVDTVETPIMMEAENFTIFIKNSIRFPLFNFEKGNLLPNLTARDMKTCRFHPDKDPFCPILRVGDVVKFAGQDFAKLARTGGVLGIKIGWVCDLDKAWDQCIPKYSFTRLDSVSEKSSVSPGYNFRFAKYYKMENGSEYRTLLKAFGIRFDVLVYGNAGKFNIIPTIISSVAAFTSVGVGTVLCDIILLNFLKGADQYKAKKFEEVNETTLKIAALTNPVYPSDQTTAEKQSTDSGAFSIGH
The class given is cell-based. Particulars: for inhibition at 30 µM: CHO-K1, read-out: hP2X2/3R % inhib.

A further assay deals with T3, hP2X3R (Homo sapiens, UniProt P56373).
T3 construct: expressed in transfected cells; host or cells: CHO-K1
T3 sequence (P56373 1-397): T2 sequence (P56373 1-397)
The class given is cell-based. Particulars: for inhibition at 30 µM: CHO-K1, read-out: hP2X3R % inhib.

Another assay addresses T4, hP2X4R (Homo sapiens, UniProt Q99571).
T4 construct: expressed in transfected cells; host or cells: HEK-293
T4 sequence (Q99571 1-388): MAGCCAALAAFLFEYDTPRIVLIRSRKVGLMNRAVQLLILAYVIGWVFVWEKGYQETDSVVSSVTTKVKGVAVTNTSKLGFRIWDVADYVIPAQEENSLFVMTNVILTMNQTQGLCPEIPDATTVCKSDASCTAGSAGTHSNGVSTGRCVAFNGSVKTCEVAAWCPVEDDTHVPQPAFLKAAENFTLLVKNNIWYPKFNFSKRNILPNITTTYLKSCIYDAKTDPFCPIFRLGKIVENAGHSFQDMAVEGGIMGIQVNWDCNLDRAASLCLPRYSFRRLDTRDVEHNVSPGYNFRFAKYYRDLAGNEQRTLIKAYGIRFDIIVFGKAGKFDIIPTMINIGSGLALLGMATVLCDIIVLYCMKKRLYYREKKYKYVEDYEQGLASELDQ
The assay is classed as cell-based. Particulars: for inhibition at 30 µM: HEK293, read-out: hP2X4R % inhib.

[1] abbreviates: percent inhibition at 30 μM, agonist α,β-MeATP 5.0 μM.
Setting [2] is: percent inhibition at 30 μM, agonist α,β-MeATP 1.0 μM.

Regarding `O=C1CC(=O)N(c2cccc(-c3noc(=S)[nH]3)n2)c2ccc3ccccc3c2N1` [Compound 21v, 5-(6-(5-Thioxo-4,5-dihydro-1,2,4-oxadiazol-3-yl)pyridin-2-yl)-1,5-dihydro-2H-naphtho[1,2-b][1,4]diazepine-2,4(3H)-dione triethylamine salt], the results for the inhibition at 30 µM at hP2X1R, at hP2X2/3R (setting [1]) and at hP2X3R (setting [2]) were ≤ 31%, 15% and 17%, respectively. Further, the “hP2X4R inhibitory activity relative to 22a, in words” value at hP2X4R was “reduce”. For the same molecule, the IC50 on hP2X4R (agonist CTP 10 μM (~EC80)) came to 6.48 µM.

For the molecule `CCN(CC)CC.O=C1CC(=O)N(c2cccc(-c3noc(=S)[nH]3)c2)c2cc(-c3ccccc3)c3ccccc3c2N1` [Compound 211, 7-Phenyl-5-(3-(5-thioxo-4,5-dihydro-1,2,4-oxadiazol-3-yl)phenyl)-1,5-dihydro-2H-naphtho[1,2-b][1,4]diazepine-2,4(3H)-dione triethylamine salt], at hP2X1R, the hP2X1R % inhib. is 14%. At hP2X2/3R, the hP2X2/3R % inhib. came to 10%. The same molecule returned a hP2X3R % inhib. at hP2X3R of 11%. Moreover, the IC50 at hP2X4R is 20.7 µM.

Turning to `CCN(CC)CC.Cc1ccc2c(Br)cc3c(c2c1)NC(=O)CC(=O)N3c1cccc(-c2noc(=S)[nH]2)c1` [Compound 21e, 7-Bromo-10-methyl-5-(3-(5-thioxo-4,5-dihydro-1,2,4-oxadiazol-3-yl)phenyl)-1,5-dihydro-2H-naphtho[1,2-b][1,4]diazepine-2,4(3H)-dione triethylamine salt], the hP2X1R % inhib. on hP2X1R is recorded as −2%. Besides, the hP2X2/3R % inhib. on hP2X2/3R was −5%. Also, at hP2X3R, the hP2X3R % inhib. stood at 17%. On hP2X4R, the IC50 was found to be 11.8 µM and the “hP2X4R inhibitory activity relative to 22a, in words” value is “only moderately reduced activity”.

Take `CCN(CC)CC.NCc1ccc2ccc3c(c2c1)NC(=O)CC(=O)N3c1cccc(-c2noc(=S)[nH]2)c1` [Compound 21q, 10-(Aminomethyl)-5-(3-(5-thioxo-4,5-dihydro-1,2,4-oxadiazol-3-yl)phenyl)-1,5-dihydro-2H-naphtho[1,2-b][1,4]diazepine-2,4(3H)-dione triethylamine salt]: the hP2X1R % inhib. at hP2X1R came to 8%. For the same molecule, on hP2X2/3R, the hP2X2/3R % inhib. is given as 0%. Also, the hP2X3R % inhib. at hP2X3R is listed as 9%. This molecule returned a hP2X4R % inhib. at hP2X4R of 9%.

`CCN(CC)CC.[N-]=[N+]=NCc1ccc2c(Br)cc3c(c2c1)NC(=O)CC(=O)N3c1cccc(-c2noc(=S)[nH]2)c1` [Compound 21h, 10-(azidomethyl)-7-bromo-5-(3-(5-thioxo-4,5-dihydro-1,2,4-oxadiazol-3-yl)phenyl)-1,5-dihydro-2H-naphtho[1,2-b][1,4]diazepine-2,4(3H)-dione triethylamine salt]: the hP2X1R % inhib. at hP2X1R is given as −13%. Moreover, on hP2X2/3R, the hP2X2/3R % inhib. is recorded as −4%. The hP2X3R % inhib. on hP2X3R was 15%. Further, on hP2X4R, the hP2X4R % inhib. was found to be 8% and the “hP2X4R inhibitory activity relative to 22a, in words” value was “inactive”.

Take `CCc1cc2c(c3ccccc13)NC(=O)CC(=O)N2c1cccc(-c2noc(=S)[nH]2)c1` [Compound 21p, 7-Ethyl-5-(3-(5-thioxo-4,5-dihydro-1,2,4-oxadiazol-3-yl)phenyl)-1,5-dihydro-2H-naphtho[1,2-b][1,4]diazepine-2,4(3H)-dione triethylamine salt]: the values for the inhibition at 30 µM at hP2X1R, at hP2X2/3R (setting [1]) and at hP2X3R (setting [2]) were 6%, 10% and 6%, respectively. Moreover, on hP2X4R (agonist CTP 10 μM (~EC80)), the IC50 was found to be 5.13 µM.

`Cc1cc(-c2noc(=S)[nH]2)cc(N2C(=O)CC(=O)Nc3c2ccc2ccccc32)c1` [Compound 21r, 5-(3-Methyl-5-(5-thioxo-4,5-dihydro-1,2,4-oxadiazol-3-yl)phenyl)-1,5-dihydro-2H-naphtho[1,2-b][1,4]diazepine-2,4(3H)-dione]: the figures for the inhibition at 30 µM at hP2X1R, on hP2X2/3R (setting [1]) and on hP2X3R (setting [2]) were 16%, 5% and 12%, respectively. The molecule also yielded an IC50 on hP2X4R (agonist CTP 10 μM (~EC80)) of 14 µM.

On to `O=C1CC(=O)N(c2cncc(-c3noc(=S)[nH]3)c2)c2ccc3ccccc3c2N1` [Compound 21t, 5-(5-(5-Thioxo-4,5-dihydro-1,2,4-oxadiazol-3-yl)pyridin-3-yl)-1,5-dihydro-2H-naphtho[1,2-b][1,4]diazepine-2,4(3H)-dione triethylamine salt], for which the results for the inhibition at 30 µM on hP2X1R, at hP2X2/3R (setting [1]) and at hP2X3R (setting [2]) were 15%, 25% and 6%, respectively. The “hP2X4R inhibitory activity relative to 22a, in words” value at hP2X4R was “reduce”. This molecule registered an IC50 on hP2X4R (agonist CTP 10 μM (~EC80)) of 14.6 µM.

“2′,3′-O-Trinitrophenyl-adenosine-5′-triphosphate [TNP-ATP, reference compound]”: the figures for the IC50 at hP2X1R, against hP2X2/3R and against hP2X3R were 0.12 µM, 0.064 µM and 0.018 µM, respectively.

Regarding `CCN(CC)CC.[N-]=[N+]=NCc1ccc2ccc3c(c2c1)NC(=O)CC(=O)N3c1cccc(-c2noc(=S)[nH]2)c1` [Compound 21g, 10-(azidomethyl)-5-(3-(5-thioxo-4,5-dihydro-1,2,4-oxadiazol-3-yl)phenyl)-1,5-dihydro-2H-naphtho[1,2-b][1,4]diazepine-2,4(3H)-dione triethylamine salt], at hP2X1R, the hP2X1R % inhib. amounted to 8%. Moreover, on hP2X2/3R, the hP2X2/3R % inhib. came out at 4%. The molecule also registered a hP2X3R % inhib. at hP2X3R of 13%. On hP2X4R, this molecule came in with a hP2X4R % inhib. of 6%.

Consider `O=C1CC(=O)N(c2cccc(-c3noc(=S)[nH]3)c2)c2cc(C#Cc3ccccc3)c3ccccc3c2N1` [Compound 21m, 7-(Phenylethynyl)-5-(3-(5-thioxo-4,5-dihydro-1,2,4-oxadiazol-3-yl)phenyl)-1,5-dihydro-2H-naphtho[1,2-b][1,4]diazepine-2,4(3H)-dione], for which the inhibition at 30 µM at hP2X1R is 14%; on hP2X2/3R (setting [1]), 5%; on hP2X3R (setting [2]), 7%; at hP2X4R it was -4%.

On to `CCCCC#Cc1cc2c(c3ccccc13)NC(=O)CC(=O)N2c1cccc(-c2noc(=S)[nH]2)c1` [Compound 21o, 7-(Hex-1-yn-1-yl)-5-(3-(5-thioxo-4,5-dihydro-1,2,4-oxadiazol-3-yl)phenyl)-1,5-dihydro-2H-naphtho[1,2-b][1,4]diazepine-2,4(3H)-dione], for which the inhibition at 30 µM was 16% on hP2X1R, 1% at hP2X2/3R (setting [1]), 18% on hP2X3R (setting [2]) and 15% at hP2X4R.

As to `CC(=O)NCc1ccc2ccc3c(c2c1)NC(=O)CC(=O)N3c1cccc(-c2noc(=S)[nH]2)c1.CCN(CC)CC` [Compound 21i, N-((2,4-Dioxo-5-(3-(5-thioxo-4,5-dihydro-1,2,4-oxadiazol-3-yl)phenyl)-2,3,4,5-tetrahydro-1H-naphtho[1,2-b][1,4]diazepin-10-yl)methyl) acetamide triethylamine salt], at hP2X2/3R (setting [1]), the hP2X2/3R % inhib. is −5%. In addition, the hP2X3R % inhib. on hP2X3R (setting [2]) was 9%. Further, the “hP2X4R inhibitory activity relative to 22a, in words” value on hP2X4R is “inactive”. The hP2X4R % inhib. on hP2X4R (percent inhibition at 30 μM, agonist CTP 10 μM) is listed as 16%.
